What all share (assay type): biochemical
Experiment [1] addresses GST-tagged SIK1 (Homo sapiens (Human), UniProt P57059). The experiment is described as follows: SIK1 inhibition test (ADP-Glo Max Assay). The settings on record: enzyme 20 nM, AMARA Peptide 200 μM, ATP 1 mM, 2 hours room temperature. The protocol:
(§1) The compounds described in Examples above were used in the SIK1, SIK2, and SIK3 inhibition test.
(§2) The inhibitory activity of the compound for SIK1, SIK2, and SIK3 enzymes was assayed by measuring the amount of ADP, an enzyme reaction product, with ADP-Glo™ Max Assay (Promega). Enzymes, specifically, GST-tagged SIK1 (Carna Biosciences, Inc.), GST-tagged SIK2 (Carna Biosciences, Inc.), and GST-tagged SIK3 (SignalChem) were prepared in a reaction buffer (15 mM tris-hydrochloric acid buffer (pH 7.5), 0.001% Triton X-100, 0.01% BSA) so that the final concentration would be 20 nM, 3 nM, and 100 nM. Enzyme solutions were thus formed. In a reaction buffer, AMARA Peptide (SignalChem) as a substrate with a final concentration of 200 μM (SIK1, SIK2) or 100 μM (SIK3), ATP (Promega) with a final concentration of 1 mM, and magnesium chloride with a final concentration of 5 mM were prepared. Substrate solutions were thus formed. The enzyme solution, the substrate solution, and a DMSO solution of a concentration of the test compound were mixed together and reacted at room temperature for 2 hours. After the reaction, ADP-Glo™ Reagent (Promega) was added, and the reaction was performed at room temperature for 30 minutes. Subsequently, ADP-Glo™ Max Detection Reagent (Promega) was added, and the reaction was performed at room temperature for 30 minutes. The emission by the luciferase reaction was measured with PHERAstar FSX (BMG LABTECH).
(§3) The inhibitory ratio (%) was calculated by: % Inhibition={1−(intensity of sample−intensity of blank (no enzyme solution added))/(intensity of control (DMSO alone)−intensity of blank)}×100. The inhibitory concentration IC50 was calculated based on 16 data values obtained in the concentration response test.
(ADP-Glo turns the ADP formed in a reaction into a luminescent signal.)

Experiment [2] deals with GST-tagged SIK2 (Homo sapiens (Human), UniProt Q9H0K1). The experiment is described as follows: SIK2 inhibition test (ADP-Glo Max Assay). The settings on record: enzyme 3 nM, AMARA Peptide 200 μM, ATP 1 mM, 2 hours room temperature. The protocol:
as §1, §2, §3

Experiment [3] has as its target GST-tagged SIK3 (Homo sapiens (Human), UniProt Q9Y2K2). The experiment is described as follows: SIK3 inhibition test (ADP-Glo Max Assay). The note with it: enzyme 100 nM, AMARA Peptide 100 μM, ATP 1 mM, 2 hours room temperature. How it is done:
as §1, §2, §3

In general, IC50 refers to the concentration at which inhibition is half-maximal.

Chain of GST-tagged SIK2 (Q9H0K1 whole entry): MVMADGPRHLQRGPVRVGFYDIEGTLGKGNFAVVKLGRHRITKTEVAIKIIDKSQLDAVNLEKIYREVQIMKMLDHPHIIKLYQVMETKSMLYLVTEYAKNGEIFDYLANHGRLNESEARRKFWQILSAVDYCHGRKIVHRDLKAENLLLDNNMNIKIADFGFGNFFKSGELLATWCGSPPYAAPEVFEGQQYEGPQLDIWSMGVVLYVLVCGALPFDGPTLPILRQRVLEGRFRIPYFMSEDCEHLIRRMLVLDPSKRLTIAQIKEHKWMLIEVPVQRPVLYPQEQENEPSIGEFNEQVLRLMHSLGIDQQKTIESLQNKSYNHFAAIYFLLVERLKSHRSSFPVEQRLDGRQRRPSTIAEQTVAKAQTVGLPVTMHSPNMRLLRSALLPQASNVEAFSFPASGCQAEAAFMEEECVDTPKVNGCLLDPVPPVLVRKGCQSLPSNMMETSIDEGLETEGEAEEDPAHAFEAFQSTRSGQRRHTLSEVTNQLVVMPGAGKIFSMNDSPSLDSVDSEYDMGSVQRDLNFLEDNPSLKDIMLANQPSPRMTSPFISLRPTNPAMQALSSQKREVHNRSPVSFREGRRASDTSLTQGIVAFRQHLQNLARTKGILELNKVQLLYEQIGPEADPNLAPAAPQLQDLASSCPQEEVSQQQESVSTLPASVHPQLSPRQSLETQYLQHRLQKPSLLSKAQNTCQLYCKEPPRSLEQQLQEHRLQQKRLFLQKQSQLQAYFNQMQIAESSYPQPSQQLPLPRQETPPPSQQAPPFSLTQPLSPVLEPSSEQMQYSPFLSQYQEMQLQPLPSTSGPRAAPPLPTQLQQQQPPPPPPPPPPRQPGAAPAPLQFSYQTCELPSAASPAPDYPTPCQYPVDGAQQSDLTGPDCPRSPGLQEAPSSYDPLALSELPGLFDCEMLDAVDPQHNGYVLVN
Chain of GST-tagged SIK1 (P57059 whole entry): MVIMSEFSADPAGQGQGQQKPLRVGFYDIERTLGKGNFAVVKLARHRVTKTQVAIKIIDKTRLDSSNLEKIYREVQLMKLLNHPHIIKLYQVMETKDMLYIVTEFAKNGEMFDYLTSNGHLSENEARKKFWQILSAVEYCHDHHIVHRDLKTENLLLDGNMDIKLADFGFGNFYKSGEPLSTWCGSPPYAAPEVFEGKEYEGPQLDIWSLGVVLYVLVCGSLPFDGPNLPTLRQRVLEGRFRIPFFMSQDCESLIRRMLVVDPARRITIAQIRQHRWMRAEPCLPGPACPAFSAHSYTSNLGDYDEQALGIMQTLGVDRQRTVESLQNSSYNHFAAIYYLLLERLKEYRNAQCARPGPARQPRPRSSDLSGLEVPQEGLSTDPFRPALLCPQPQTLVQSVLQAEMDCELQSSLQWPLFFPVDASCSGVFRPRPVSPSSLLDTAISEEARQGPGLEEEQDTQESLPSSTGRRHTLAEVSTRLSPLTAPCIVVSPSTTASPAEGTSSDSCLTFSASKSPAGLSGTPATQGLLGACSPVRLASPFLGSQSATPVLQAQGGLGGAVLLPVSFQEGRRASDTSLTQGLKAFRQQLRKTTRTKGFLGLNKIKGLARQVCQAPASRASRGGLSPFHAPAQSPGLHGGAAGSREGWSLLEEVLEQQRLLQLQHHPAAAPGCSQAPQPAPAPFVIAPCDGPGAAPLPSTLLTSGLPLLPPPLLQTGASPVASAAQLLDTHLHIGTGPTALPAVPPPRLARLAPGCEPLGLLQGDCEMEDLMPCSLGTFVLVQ
Chain of GST-tagged SIK3 (Q9Y2K2 whole entry): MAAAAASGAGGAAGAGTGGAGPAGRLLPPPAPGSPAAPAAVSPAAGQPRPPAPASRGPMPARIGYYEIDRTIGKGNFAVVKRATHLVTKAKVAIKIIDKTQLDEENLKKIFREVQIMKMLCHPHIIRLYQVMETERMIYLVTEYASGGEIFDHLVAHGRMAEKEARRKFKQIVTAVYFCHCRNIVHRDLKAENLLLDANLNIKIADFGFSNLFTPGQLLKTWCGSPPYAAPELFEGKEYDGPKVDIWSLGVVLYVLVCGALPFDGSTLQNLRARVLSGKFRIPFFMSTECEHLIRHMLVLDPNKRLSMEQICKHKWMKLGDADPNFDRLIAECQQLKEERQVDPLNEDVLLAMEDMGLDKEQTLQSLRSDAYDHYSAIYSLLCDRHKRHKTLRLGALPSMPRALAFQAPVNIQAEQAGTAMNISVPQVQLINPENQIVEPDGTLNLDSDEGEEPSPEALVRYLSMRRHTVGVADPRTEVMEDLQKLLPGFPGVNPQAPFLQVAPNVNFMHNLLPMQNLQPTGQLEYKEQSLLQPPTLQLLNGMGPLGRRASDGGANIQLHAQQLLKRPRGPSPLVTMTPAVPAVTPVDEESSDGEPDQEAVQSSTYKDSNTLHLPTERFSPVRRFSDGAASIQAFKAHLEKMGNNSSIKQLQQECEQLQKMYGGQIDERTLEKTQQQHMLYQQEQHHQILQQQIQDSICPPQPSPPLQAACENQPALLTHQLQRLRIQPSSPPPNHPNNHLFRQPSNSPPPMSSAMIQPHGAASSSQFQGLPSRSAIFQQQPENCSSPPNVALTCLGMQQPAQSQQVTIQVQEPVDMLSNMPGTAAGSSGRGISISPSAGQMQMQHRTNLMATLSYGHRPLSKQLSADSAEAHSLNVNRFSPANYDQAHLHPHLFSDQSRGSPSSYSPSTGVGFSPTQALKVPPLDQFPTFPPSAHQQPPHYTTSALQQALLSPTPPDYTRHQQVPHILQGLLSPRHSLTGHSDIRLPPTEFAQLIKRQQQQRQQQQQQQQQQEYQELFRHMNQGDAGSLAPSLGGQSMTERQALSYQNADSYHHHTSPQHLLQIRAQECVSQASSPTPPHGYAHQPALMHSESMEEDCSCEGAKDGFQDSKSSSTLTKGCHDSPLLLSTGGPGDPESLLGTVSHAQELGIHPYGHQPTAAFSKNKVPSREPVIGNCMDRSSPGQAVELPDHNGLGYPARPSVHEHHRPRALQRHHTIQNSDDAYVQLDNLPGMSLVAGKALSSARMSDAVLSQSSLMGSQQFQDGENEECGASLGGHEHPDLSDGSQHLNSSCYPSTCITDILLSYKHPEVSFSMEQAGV

As for `COc1cc(-c2c3c(C#N)cc(-c4cnn(C)c4)cc3nn2C)cc(OC(F)F)c1C(=O)NCC1(F)CC1` [Example 12, 4-[4-cyano-2-methyl-6-(1-methylpyrazol-4-yl)indazol-3-yl]-2-(difluoromethoxy)-N-[(1-fluorocyclopropyl)methyl]-6-methoxybenzamide], the values for the IC50 in experiment [1], in experiment [2] and in experiment [3] were 12.4 nM, 7 nM and 7 nM, respectively.

For `COc1cc(-c2c3c(C#N)cc(-c4cnn(CC(C)(C)O)c4)cc3nn2C)cc(OC(F)F)c1C(=O)NC[C@@H]1CC1(F)F` (single isomer, unassigned) [Example 86], the IC50 in experiment [1] was found to be 13.7 nM; in experiment [2], 13.1 nM; in experiment [3] it was 19.4 nM.

As to `COc1cc(-c2c3c(C#N)cc(-c4cnn(C[C@@H](C)O)c4)cc3nn2C)cc(OC(F)F)c1C(=O)NCC1(F)CC1` [Example 57, 4-[4-cyano-6-[1-[(2R)-2-hydroxypropyl]pyrazol-4-yl]-2-methylindazol-3-yl]-2-(difluoromethoxy)-N-[(1-fluorocyclopropyl)methyl]-6-methoxybenzamide], the figures for the IC50 in experiment [1], in experiment [2] and in experiment [3] were 16 nM, 10 nM and 9.2 nM, respectively.

As for `COc1cc(-c2c3c(C#N)cc(-c4cnn(CC(F)F)c4)cc3nn2C)cc(OC(F)F)c1C(=O)N[C@@H]1C[C@@H]1F` [Example 31, 4-[4-cyano-6-[1-(2,2-difluoroethyl)pyrazol-4-yl]-2-methylindazol-3-yl]-2-(difluoromethoxy)-N-[(1R, 2S)-2-fluorocyclopropyl]-6-methoxybenzamide], the IC50 was 3.7 nM in experiment [1], 3.3 nM in experiment [2] and 7.8 nM in experiment [3].

For the compound `COc1cc(-c2c3c(OCCO)cc(-c4cnn(C)c4)cc3nn2C)cc(OC(F)F)c1C(N)=O` [Example 145, 2-(difluoromethoxy)-4-[4-(2-hydroxyethoxy)-2-methyl-6-(1-methylpyrazol-4-yl)indazol-3-yl]-6-methoxybenzamide], the IC50 is 10.3 nM in experiment [1], 1.8 nM in experiment [2] and 19.1 nM in experiment [3].

As to `COc1cc(-c2c3c(C#N)cc(-c4cnn(C)c4)cc3nn2C)cc(OC(F)F)c1C(N)=O` [Example 73, 4-[4-cyano-2-methyl-6-(1-methylpyrazol-4-yl)indazol-3-yl]-2-(difluoromethoxy)-6-methoxybenzamide], the figures for the IC50 in experiment [1], in experiment [2] and in experiment [3] were 17.4 nM, 3.8 nM and 6.5 nM, respectively.

For the compound `COc1cc(-c2c3ccc(OCCN4CCOCC4)cc3nn2C)cc(OC(F)F)c1C(=O)NC1CC1` [Comparative Example 7, N-cyclopropyl-2-(difluoromethoxy)-6-methoxy-4-(2-methyl-6-(2-morpholinoethoxy)-2H-indazol-3-yl)benzamide, reference compound], the values for the IC50 in experiment [1], in experiment [2] and in experiment [3] were 7600 nM, 369 nM and 198 nM, respectively.

Take `COc1cc(-c2c3c(C#N)cc(-c4cnn(C(C)C)c4)cc3nn2C)cc(OC(F)F)c1C(N)=O` [Example 132, 4-[4-cyano-2-methyl-6-(1-propan-2-ylpyrazol-4-yl)indazol-3-yl]-2-(difluoromethoxy)-6-methoxybenzamide]: the IC50 in experiment [1] amounted to 16.1 nM; in experiment [2], 4 nM; in experiment [3], 5.8 nM.

As to `COc1cc(-c2c3c(OC)cc(-c4cnn(C)c4)cc3nn2C)cc(OC(F)F)c1C(N)=O` [Example 130, 2-(difluoromethoxy)-6-methoxy-4-[4-methoxy-2-methyl-6-(1-methylpyrazol-4-yl)indazol-3-yl]benzamide], the IC50 in experiment [1] stood at 16.9 nM; in experiment [2] it was 2.1 nM; in experiment [3], 16.8 nM.

`COc1cc(-c2c3c(C#N)cc(-c4cnn(CCN5CC(F)(F)C5)c4)cc3nn2C)cc(OC(F)F)c1C(=O)NC[C@@H]1CC1(F)F` (stereo in doubt) [Example 108, 4-[4-cyano-6-[1-[2-(3,3-difluoroazetidin-1-yl)ethyl]pyrazol-4-yl]-2-methylindazol-3-yl]-2-(difluoromethoxy)-6-methoxy-N-[[rel-(1R)-2,2-difluorocyclopropyl]methyl]benzamide]: the IC50 in experiment [1] came out at 16.8 nM; in experiment [2], 6.5 nM; in experiment [3] it was 2.4 nM.

Regarding `COc1cc(-c2c3c(C#N)cc(-c4cnn(C[C@H](C)O)c4)cc3nn2C)cc(OC(F)F)c1C(N)=O` [Example 125, 4-[4-cyano-6-[1-[(2S)-2-hydroxypropyl]pyrazol-4-yl]-2-methylindazol-3-yl]-2-(difluoromethoxy)-6-methoxybenzamide], the IC50 was determined as 11.5 nM in experiment [1], 1.8 nM in experiment [2] and 2.9 nM in experiment [3].

For `CCn1cc(-c2cc(C(F)F)c3c(-c4cc(OC)c(C(N)=O)c(OC(F)F)c4)n(C)nc3c2)cn1` [Example 112, 2-(difluoromethoxy)-4-[4-(difluoromethyl)-6-(1-ethylpyrazol-4-yl)-2-methylindazol-3-yl]-6-methoxybenzamide], the IC50 in experiment [1] stood at 16.6 nM; in experiment [2], 13.7 nM; in experiment [3], 3 nM.

Consider `COc1cc(-c2c3c(OCc4cnn(C)c4)cc(-c4cnn(C)c4)cc3nn2C)cc(OC(F)F)c1C(=O)N1CC(O)(C(F)(F)F)C1` [Example 52, [2-(difluoromethoxy)-6-methoxy-4-[2-methyl-6-(1-methylpyrazol-4-yl)-4-[(1-methylpyrazol-4-yl)methoxy]indazol-3-yl]phenyl]-[3-hydroxy-3-(trifluoromethyl)azetidin-1-yl]methanone], for which the IC50 stood at 6.2 nM in experiment [1], 6 nM in experiment [2] and 9.2 nM in experiment [3].

`CCn1cc(-c2cc(C(F)F)c3c(-c4cc(OC)c(C(=O)N[C@@H]5CC5(F)F)c(OC(F)F)c4)n(C)nc3c2)cn1` [Example 116, N-[(1R)-2,2-difluorocyclopropyl]-2-(difluoromethoxy)-4-[4-(difluoromethyl)-6-(1-ethylpyrazol-4-yl)-2-methylindazol-3-yl]-6-methoxybenzamide]: the half-maximal inhibitory concentration (IC50) is 16.1 nM in experiment [1], 5.8 nM in experiment [2] and 1.1 nM in experiment [3].

Regarding `COc1cc(-c2c3c(C#N)cc(-c4cnn(CC(C)C)c4)cc3nn2C)cc2c1C(=O)NC[C@@H]2C` (single isomer, unassigned) [Example 169], the IC50 in experiment [1] came to 8.1 nM; in experiment [2], 1.9 nM; in experiment [3], 3.4 nM.

Consider `COc1cc(-c2c3c(C(F)F)cc(-c4cnn(C)c4)cc3nn2C)cc(OC(F)F)c1C(=O)N[C@@H]1C[C@@H]1F` [Example 3, 2-(difluoromethoxy)-4-[4-(difluoromethyl)-2-methyl-6-(1-methylpyrazol-4-yl)indazol-3-yl]-N-[(1R,2S)-2-fluorocyclopropyl]-6-methoxybenzamide], for which the IC50 in experiment [1] was 7.6 nM; in experiment [2] it was 4.5 nM; in experiment [3], 2.3 nM.

Take `COc1cc(-c2c3c(C#N)cc(-c4cnn(C)c4)cc3nn2C)cc(OC(F)F)c1C(=O)N1CC(N)(C(F)(F)F)C1` [Example 36, 3-[4-[3-amino-3-(trifluoromethyl)azetidin-1-carbonyl]-3-(difluoromethoxy)-5-methoxyphenyl]-2-methyl-6-(1-methylpyrazol-4-yl)indazole-4-carbonitrile]: the IC50 in experiment [1] amounted to 12.5 nM; in experiment [2], 15.4 nM; in experiment [3], 10.2 nM.

With `COc1cc(-c2c3c(C#N)cc(-c4cnn(CC(F)F)c4)cc3nn2C)cc2c1C(=O)NC[C@@H]2C` (single isomer, unassigned) [Example 107], the IC50 is 8.3 nM in experiment [1], 4 nM in experiment [2] and 8 nM in experiment [3].

For `COc1cc(-c2c3c(C#N)cc(-c4cnn(CC(F)(F)F)c4)cc3nn2C)cc2c1C(=O)NCC2(C)C` [Example 146, 3-(8-methoxy-4,4-dimethyl-1-oxo-2,3-dihydroisoquinolin-6-yl)-2-methyl-6-[1-(2,2,2-trifluoroethyl)pyrazol-4-yl]indazole-4-carbonitrile], the IC50 in experiment [1] was determined as 12.6 nM; in experiment [2], 3.6 nM; in experiment [3], 7.8 nM.

On to `COc1cc(-c2c3c(C#N)cc(-c4cnn(CC5CCOC5)c4)cc3nn2C)cc(OC(F)F)c1C(=O)NCC1(F)CC1` (stereo not drawn) [Example 78, 4-[4-cyano-2-methyl-6-[1-(oxolan-3-ylmethyl)pyrazol-4-yl]indazol-3-yl]-2-(difluoromethoxy)-N-[(1-fluorocyclopropyl)methyl]-6-methoxybenzamide], for which the values for the IC50 in experiment [1], in experiment [2] and in experiment [3] were 12.6 nM, 5.4 nM and 6.7 nM, respectively.
